# Laboratory results reported in patent US20200255411A1, “ISOINDOLINE DERIVATIVES” (VIIV HEALTHCARE UK LIMITED, priority 2015, published 2020).
# Test system: HIV in the HTLV-1 transformed cell line MT-4
# Assay: MT4 assay (antiviral HIV activity)
# Type: cell-based
# Settings: MT-4 cells, readout at 96 hours with cell titer glo, 10 point dose response
# Description: Antiviral HIV activity and cytotoxicity values for compounds of the invention from Table 1 were measured in parallel in the HTLV-1 transformed cell line MT-4 based on the method previously described (Hazen et al., 2007, In vitro antiviral activity of the novel, tyrosyl-based human immunodeficiency virus (HIV) type 1 protease inhibitor brecanavir (GW640385) in combination with other antiretrovirals and against a panel of protease inhibitor-resistant HIV (Hazen et al., “In vitro antiviral activity of the novel, tyrosyl-based human immunodeficiency virus (HIV) type 1 protease inhibitor brecanavir (GW640385) in combination with other antiretrovirals and against a panel of protease inhibitor-resistant HIV”, Antimicrob. Agents Chemother. 2007, 51: 3147-3154; and Pauwels et al., “Sensitive and rapid assay on MT-4 cells for the detection of antiviral compounds against the AIDS virus”, J. of Virological Methods 1987, 16: 171-185).
# Luciferase activity was measured 96 hours later by adding a cell titer glo (Promega, Madison, Wis.). Percent inhibition of cell protection data was plotted relative to no compound control. Under the same condition, cytotoxicity of the compounds was determined using cell titer Glo™ (Promega, Madison, Wis.). IC50s were determined from a 10 point dose response curve using 3-4-fold serial dilution for each compound, which spans a concentration range >1000 fold. […]
smiles,measurement,value
"Cc1c(-c2c(C)c3c(c(C)c2[C@H](OC(C)(C)C)C(=O)O)CN(C(=O)c2cccc(F)c2)[C@@H]3C)cc(F)c2c1CCCO2 (atropisomer, axis not shown; (M)) [Example 1]",IC50,1.7 nM
